Assay results from article PMC11007962, “First-in-human study of GFH018, a small molecule inhibitor of transforming growth factor-β receptor I inhibitor, in patients with advanced solid tumors” (BMC Cancer, 2024).
Like-named read-outs stand apart in the source and are kept apart here.

Tested on: patients with advanced solid tumors
[1] = 85 mg BID 14d-on/14d-off (N = 12)

Experimental: The study consisted of a dose-escalation part followed by an expansion part. In the dose escalation part, a 3-day pharmacokinetic (PK) lead-in period was conducted for a single dose in the first treatment cycle. Patients received GFH018 once on cycle 1 day 1 (C1D1) and underwent serial PK testing over the first 3 days. On C1D4, patients were administered the corresponding dose of GFH018 BID 14 days on/14 days off. The first cycle was defined as 31 days, including 3-day PK leading-in period with GFH018 single dosing and then 14d-on/14d-off dosing schedule. The subsequent cycles were 28 days. The starting dose of GFH018 was 5 mg, with eight planned dose levels up to 85 mg (5, 10, 20, 30, 40, 50, 65, and 85 mg). A modified 3+3 design was used to determine the maximum tolerance dose (MTD) and RDE, guided by safety/tolerability and PK data. Dose-limiting toxicities (DLTs) were evaluated during the first cycle at each dose level. The safety of 85 mg BID, 7 d-on/7 d-off, was explored after confirming the safety of 14 d-on/14 d-off. The DLTs were defined as hematological toxicities, including G4 neutropenia lasting for more than 5 days, G3 febrile neutropenia, G4 anemia, G4 thrombocytopenia, or G3 thrombocytopenia accompanied by bleeding, and ≥ G3 nonhematological toxicity (except for diarrhea, nausea, vomiting, and rash recovering ≤ G2 after supportive treatment within 3 days). The DLTs for cardiac toxicities included ≥ G2 cardiac valve abnormalities, ≥ G2 left ventricular ejection fraction (LVEF) decrease, any cardiovascular impairment shown in imaging, and abnormal highly sensitive troponin (hs-Tn) increased to ≥ twice the baseline in two consecutive tests with an interval ≥ 3 days. In the expansion part, patients were orally administered GFH018 RDE twice daily to further evaluate the safety of RDE and other dose regimens. […] The treatment cycle lasted 28 days.
All enrolled patients were monitored regularly after GFH018 administration. Safety assessments included adverse events (AEs), serious AEs (SAEs), laboratory assessments, vital signs, physical examinations, electrocardiography and echocardiography. AEs were graded according to the NCI Common Terminology Criteria for Adverse Events (NCI-CTCAE) v5.0. All AEs were followed up until they were stable or had recovered to baseline. Adverse events of special interest (AESIs) were predefined as echocardiographic abnormalities such as aggravated stenosis or regurgitation of the heart valves, clinically significant decreases in LVEF, brain natriuretic peptide (BNP) or N-terminal pro-brain natriuretic peptide (NT-proBNP) increases, and hs-Tn increases judged by investigators.
For the safety and efficacy analyses, data from patients who received GFH018 at the same dose in the dose-escalation and expansion cohorts were pooled. The demographic and baseline characteristics were summarized using descriptive methods. Safety and efficacy data were summarized for all patients who received at least one dose of GFH018. The ORR and DCR were summarized by cohort and overall. When the sample size of the analyzed group was ten or more, the Kaplan–Meier method was used to estimate the median PFS and TTP. In this study, treatment-emergent AEs (TEAEs) were defined as AEs that occurred on or after the first dosing date of GFH018 and no later than 30 days after the last dose of GFH018. The incidence and severity of AEs were descriptively summarized according to dose level. The PK parameters of GFH018 were calculated using noncompartmental analysis methods. All plasma PK data were summarized by cohort and visit day or time using descriptive statistics.

Cc1cccc(-c2nn3c(c2-c2ccc4ncnn4c2/C=C/C(N)=O)CCC3)n1 [GFH018]
TEAE: ALT increased, any grade (Table S3) (85 mg BID 7d-on/7d-off (N = 6)): 0 n (%)
TEAE: ALT increased, maximal CTCAE grade G1 (85 mg BID 7d-on/7d-off (N = 6)): 0 n (%)
TEAE: ALT increased, maximal CTCAE grade G2 (85 mg BID 7d-on/7d-off (N = 6)): 0 n (%)
TEAE: ALT increased, maximal CTCAE grade G3 (85 mg BID 7d-on/7d-off (N = 6)): 0 n (%)
TEAE: ALT increased, maximal CTCAE grade G4 (85 mg BID 7d-on/7d-off (N = 6)): 0 n (%)
TEAE: ALT increased, maximal CTCAE grade G5 (85 mg BID 7d-on/7d-off (N = 6)): 0 n (%)
TEAE: AST increased (85 mg BID 7d-on/7d-off (N = 6)): 1 (16.7%) n (%)
TEAE: AST increased, any grade (Table S3) (85 mg BID 7d-on/7d-off (N = 6)): 1 (16.7%) n (%)
TEAE: AST increased, maximal CTCAE grade G1 (85 mg BID 7d-on/7d-off (N = 6)): 1 (16.7%) n (%)
TEAE: AST increased, maximal CTCAE grade G2 (85 mg BID 7d-on/7d-off (N = 6)): 0 n (%)
TEAE: AST increased, maximal CTCAE grade G3 (85 mg BID 7d-on/7d-off (N = 6)): 0 n (%)
TEAE: AST increased, maximal CTCAE grade G4 (85 mg BID 7d-on/7d-off (N = 6)): 0 n (%)
TEAE: AST increased, maximal CTCAE grade G5 (85 mg BID 7d-on/7d-off (N = 6)): 0 n (%)
TEAE: Abdominal distention (85 mg BID 7d-on/7d-off (N = 6)): 1 (16.7%) n (%)
TEAE: Abdominal pain (85 mg BID 7d-on/7d-off (N = 6)): 2 (33.3%) n (%)
TEAE: Anemia (85 mg BID 7d-on/7d-off (N = 6)): 2 (33.3%) n (%)
TEAE: Asthenia (85 mg BID 7d-on/7d-off (N = 6)): 1 (16.7%) n (%)
TEAE: Bilirubin conjugated increased (85 mg BID 7d-on/7d-off (N = 6)): 1 (16.7%) n (%)
TEAE: Blood albumin decreased (85 mg BID 7d-on/7d-off (N = 6)): 1 (16.7%) n (%)
TEAE: Blood bilirubin increased (85 mg BID 7d-on/7d-off (N = 6)): 0 n (%)
TEAE: C-reactive protein increased (85 mg BID 7d-on/7d-off (N = 6)): 0 n (%)
TEAE: C-reactive protein increased, any grade (Table S3) (85 mg BID 7d-on/7d-off (N = 6)): 0 n (%)
TEAE: C-reactive protein increased, maximal CTCAE grade G1 (85 mg BID 7d-on/7d-off (N = 6)): 0 n (%)
TEAE: C-reactive protein increased, maximal CTCAE grade G2 (85 mg BID 7d-on/7d-off (N = 6)): 0 n (%)
TEAE: C-reactive protein increased, maximal CTCAE grade G3 (85 mg BID 7d-on/7d-off (N = 6)): 0 n (%)
TEAE: C-reactive protein increased, maximal CTCAE grade G4 (85 mg BID 7d-on/7d-off (N = 6)): 0 n (%)
TEAE: C-reactive protein increased, maximal CTCAE grade G5 (85 mg BID 7d-on/7d-off (N = 6)): 0 n (%)
TEAE: Constipation (85 mg BID 7d-on/7d-off (N = 6)): 0 n (%)
TEAE: Decreased appetite (85 mg BID 7d-on/7d-off (N = 6)): 2 (33.3%) n (%)
TEAE: Decreased appetite, any grade (Table S3) (85 mg BID 7d-on/7d-off (N = 6)): 2 (33.3%) n (%)
TEAE: Decreased appetite, maximal CTCAE grade G1 (85 mg BID 7d-on/7d-off (N = 6)): 1 (16.7%) n (%)
TEAE: Decreased appetite, maximal CTCAE grade G2 (85 mg BID 7d-on/7d-off (N = 6)): 1 (16.7%) n (%)
TEAE: Decreased appetite, maximal CTCAE grade G3 (85 mg BID 7d-on/7d-off (N = 6)): 0 n (%)
TEAE: Decreased appetite, maximal CTCAE grade G4 (85 mg BID 7d-on/7d-off (N = 6)): 0 n (%)
TEAE: Decreased appetite, maximal CTCAE grade G5 (85 mg BID 7d-on/7d-off (N = 6)): 0 n (%)
TEAE: GGT increased (85 mg BID 7d-on/7d-off (N = 6)): 0 n (%)
TEAE: GGT increased, any grade (Table S3) (85 mg BID 7d-on/7d-off (N = 6)): 0 n (%)
TEAE: GGT increased, maximal CTCAE grade G1 (85 mg BID 7d-on/7d-off (N = 6)): 0 n (%)
TEAE: GGT increased, maximal CTCAE grade G2 (85 mg BID 7d-on/7d-off (N = 6)): 0 n (%)
TEAE: GGT increased, maximal CTCAE grade G3 (85 mg BID 7d-on/7d-off (N = 6)): 0 n (%)
TEAE: GGT increased, maximal CTCAE grade G4 (85 mg BID 7d-on/7d-off (N = 6)): 0 n (%)
TEAE: GGT increased, maximal CTCAE grade G5 (85 mg BID 7d-on/7d-off (N = 6)): 0 n (%)
TEAE: Hypoalbuminemia (85 mg BID 7d-on/7d-off (N = 6)): 1 (16.7%) n (%)
TEAE: LDH increased (85 mg BID 7d-on/7d-off (N = 6)): 0 n (%)
TEAE: LDH increased, any grade (Table S3) (85 mg BID 7d-on/7d-off (N = 6)): 0 n (%)
TEAE: LDH increased, maximal CTCAE grade G1 (85 mg BID 7d-on/7d-off (N = 6)): 0 n (%)
TEAE: LDH increased, maximal CTCAE grade G2 (85 mg BID 7d-on/7d-off (N = 6)): 0 n (%)
TEAE: LDH increased, maximal CTCAE grade G3 (85 mg BID 7d-on/7d-off (N = 6)): 0 n (%)
TEAE: LDH increased, maximal CTCAE grade G4 (85 mg BID 7d-on/7d-off (N = 6)): 0 n (%)
TEAE: LDH increased, maximal CTCAE grade G5 (85 mg BID 7d-on/7d-off (N = 6)): 0 n (%)
TEAE: Lymphocyte count decreased (85 mg BID 7d-on/7d-off (N = 6)): 3 (50.0%) n (%)
TEAE: Platelet count decreased (85 mg BID 7d-on/7d-off (N = 6)): 1 (16.7%) n (%)
TEAE: Proteinuria (85 mg BID 7d-on/7d-off (N = 6)): 1 (16.7%) n (%)
TEAE: Sinus tachycardia (85 mg BID 7d-on/7d-off (N = 6)): 2 (33.3%) n (%)
TEAE: Urine protein present (85 mg BID 7d-on/7d-off (N = 6)): 1 (16.7%) n (%)
TEAE: White blood cell count decreased (85 mg BID 7d-on/7d-off (N = 6)): 1 (16.7%) n (%)
TEAE: White blood cells urine positive (85 mg BID 7d-on/7d-off (N = 6)): 0 n (%)
TEAE: White blood cells urine positive, any grade (Table S3) (85 mg BID 7d-on/7d-off (N = 6)): 0 n (%)
TEAE: White blood cells urine positive, maximal CTCAE grade G1 (85 mg BID 7d-on/7d-off (N = 6)): 0 n (%)
TEAE: White blood cells urine positive, maximal CTCAE grade G2 (85 mg BID 7d-on/7d-off (N = 6)): 0 n (%)
TEAE: White blood cells urine positive, maximal CTCAE grade G3 (85 mg BID 7d-on/7d-off (N = 6)): 0 n (%)
TEAE: White blood cells urine positive, maximal CTCAE grade G4 (85 mg BID 7d-on/7d-off (N = 6)): 0 n (%)
TEAE: White blood cells urine positive, maximal CTCAE grade G5 (85 mg BID 7d-on/7d-off (N = 6)): 0 n (%)
TRAE: ALP increased (85 mg BID 7d-on/7d-off (N = 6)): 1 (16.7%) n (%)
TRAE: ALT increased (85 mg BID 7d-on/7d-off (N = 6)): 0 n (%)
TRAE: AST increased (85 mg BID 7d-on/7d-off (N = 6)): 0 n (%)
TRAE: Anemia (85 mg BID 7d-on/7d-off (N = 6)): 1 (16.7%) n (%)
TRAE: GGT increased (85 mg BID 7d-on/7d-off (N = 6)): 0 n (%)
TRAE: LDH increased (85 mg BID 7d-on/7d-off (N = 6)): 0 n (%)
TRAE: Lymphocyte count decreased (85 mg BID 7d-on/7d-off (N = 6)): 2 (33.3%) n (%)
TRAE: Protein urine present (85 mg BID 7d-on/7d-off (N = 6)): 1 (16.7%) n (%)
TRAE: Proteinuria (85 mg BID 7d-on/7d-off (N = 6)): 0 n (%)
Treatment-emergent Proteinuria (grouped PTs), G1 (85 mg BID 7d-on/7d-off (N = 6)): 2 (33.3) n (%)
Treatment-emergent Proteinuria (grouped PTs), G2 (85 mg BID 7d-on/7d-off (N = 6)): 0 n (%)
Treatment-emergent Proteinuria (grouped PTs), G3 (85 mg BID 7d-on/7d-off (N = 6)): 0 n (%)
Treatment-emergent Proteinuria (grouped PTs: proteinuria and urine protein present), any grade (85 mg BID 7d-on/7d-off (N = 6)): 2 (33.3) n (%)
At least one TEAE [1]: 12 (100%) n (%)
At least one TEAE (Table S3) [1]: 12 (100%) n (%)
At least one TRAE [1]: 11 (91.7%) n (%)
TEAE: ALP increased [1]: 2 (16.7%) n (%)
TEAE: ALT increased [1]: 3 (25.0%) n (%)
TEAE: ALT increased, any grade (Table S3) [1]: 3 (25.0%) n (%)
TEAE: ALT increased, maximal CTCAE grade G1 [1]: 3 (25.0%) n (%)
TEAE: ALT increased, maximal CTCAE grade G2 [1]: 0 n (%)
TEAE: ALT increased, maximal CTCAE grade G3 [1]: 0 n (%)
TEAE: ALT increased, maximal CTCAE grade G4 [1]: 0 n (%)
TEAE: ALT increased, maximal CTCAE grade G5 [1]: 0 n (%)
TEAE: AST increased [1]: 4 (33.3%) n (%)
TEAE: AST increased, any grade (Table S3) [1]: 4 (33.3%) n (%)
TEAE: AST increased, maximal CTCAE grade G1 [1]: 3 (25.0%) n (%)
TEAE: AST increased, maximal CTCAE grade G2 [1]: 1 (8.3%) n (%)
TEAE: AST increased, maximal CTCAE grade G3 [1]: 0 n (%)
TEAE: AST increased, maximal CTCAE grade G4 [1]: 0 n (%)
TEAE: AST increased, maximal CTCAE grade G5 [1]: 0 n (%)
TEAE: Abdominal distention [1]: 2 (16.7%) n (%)
TEAE: Abdominal pain [1]: 4 (33.3%) n (%)
TEAE: Anemia [1]: 3 (25.0%) n (%)
TEAE: Asthenia [1]: 2 (16.7%) n (%)
TEAE: Bilirubin conjugated increased [1]: 3 (25.0%) n (%)
TEAE: Blood albumin decreased [1]: 1 (8.3%) n (%)
TEAE: Blood bilirubin increased [1]: 0 n (%)
TEAE: C-reactive protein increased [1]: 3 (25.0%) n (%)
TEAE: C-reactive protein increased, any grade (Table S3) [1]: 3 (25.0%) n (%)
TEAE: C-reactive protein increased, maximal CTCAE grade G1 [1]: 3 (25.0%) n (%)
TEAE: C-reactive protein increased, maximal CTCAE grade G2 [1]: 0 n (%)
TEAE: C-reactive protein increased, maximal CTCAE grade G3 [1]: 0 n (%)
TEAE: C-reactive protein increased, maximal CTCAE grade G4 [1]: 0 n (%)
TEAE: C-reactive protein increased, maximal CTCAE grade G5 [1]: 0 n (%)
TEAE: Constipation [1]: 2 (16.7%) n (%)
TEAE: Decreased appetite [1]: 0 n (%)
TEAE: Decreased appetite, any grade (Table S3) [1]: 0 n (%)
TEAE: Decreased appetite, maximal CTCAE grade G1 [1]: 0 n (%)
TEAE: Decreased appetite, maximal CTCAE grade G2 [1]: 0 n (%)
TEAE: Decreased appetite, maximal CTCAE grade G3 [1]: 0 n (%)
TEAE: Decreased appetite, maximal CTCAE grade G4 [1]: 0 n (%)
TEAE: Decreased appetite, maximal CTCAE grade G5 [1]: 0 n (%)
TEAE: GGT increased [1]: 4 (33.3%) n (%)
TEAE: GGT increased, any grade (Table S3) [1]: 4 (33.3%) n (%)
TEAE: GGT increased, maximal CTCAE grade G1 [1]: 3 (25.0%) n (%)
TEAE: GGT increased, maximal CTCAE grade G2 [1]: 1 (8.3%) n (%)
TEAE: GGT increased, maximal CTCAE grade G3 [1]: 0 n (%)
TEAE: GGT increased, maximal CTCAE grade G4 [1]: 0 n (%)
TEAE: GGT increased, maximal CTCAE grade G5 [1]: 0 n (%)
TEAE: Hypoalbuminemia [1]: 3 (25.0%) n (%)
TEAE: LDH increased [1]: 2 (16.7%) n (%)
TEAE: LDH increased, any grade (Table S3) [1]: 2 (16.7%) n (%)
TEAE: LDH increased, maximal CTCAE grade G1 [1]: 2 (16.7%) n (%)
TEAE: LDH increased, maximal CTCAE grade G2 [1]: 0 n (%)
TEAE: LDH increased, maximal CTCAE grade G3 [1]: 0 n (%)
TEAE: LDH increased, maximal CTCAE grade G4 [1]: 0 n (%)
TEAE: LDH increased, maximal CTCAE grade G5 [1]: 0 n (%)
TEAE: Lymphocyte count decreased [1]: 4 (33.3%) n (%)
TEAE: Platelet count decreased [1]: 1 (8.3%) n (%)
TEAE: Proteinuria [1]: 2 (16.7%) n (%)
TEAE: Sinus tachycardia [1]: 1 (8.3%) n (%)
TEAE: Urine protein present [1]: 1 (8.3%) n (%)
